Where “and” joins values, the source holds several entries; their conditions need not be identical. Equal entries are not always repeated. Toxic doses and inconclusive results are not listed.

In the test the test system is L1210 leukemia ip in BDF1 mice, survival T/C. Briefly: NCI In Vivo Anticancer Drug Screen. Data for tumor model L1210 Leukemia (intraperitoneal) in B6D2F1 (BDF1) mice. The note with it: endpoint: mean survival time, higher = longer survival. In outline:
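Survival endpoint. Drug-treated group vs vehicle group, expressed as T divided by C. Tumor passaged by transplantation.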

Setting [1] is: dose: 100.0 mg/kg/injection, schedule: Q01DX001 (ip), vehicle: other.
[2] abbreviates: dose: 100.0 mg/kg/injection, schedule: Q01DX009 (ip), vehicle: saline with Tween-80.
Setting [3] is: dose: 200.0 mg/kg/injection, schedule: Q01DX009 (ip), vehicle: saline with Tween-80.
The mark [4] stands for this setting: dose: 100.0 mg/kg/injection, schedule: Q01DX001 (ip), vehicle: carboxymethylcellulose (CMC).

In the case of `CC(=O)OC1COC(n2cnc3c(=S)nc[nH]c32)C(OC(C)=O)C1OC(C)=O` (configuration not stated), the T/C is, setting by setting: under setting [1], 107 % of control; (dose: 100.0 mg/kg/injection, schedule: Q01DX001 (ip), vehicle: saline) 94 % of control; (dose: 200.0 mg/kg/injection, schedule: Q01DX001 (ip), vehicle: other) 90 % of control; (dose: 200.0 mg/kg/injection, schedule: Q01DX001 (ip), vehicle: saline) 93 % of control; (dose: 400.0 mg/kg/injection, schedule: Q01DX001 (ip), vehicle: other) 96 % of control; (dose: 400.0 mg/kg/injection, schedule: Q01DX001 (ip), vehicle: saline) 96 % of control.

In the case of `CCOC(=O)CNC(=O)NCCc1ccccc1`, the T/C is 112 % of control under setting [2]; 96 % of control under setting [3]; 87 % of control (dose: 400.0 mg/kg/injection, schedule: Q01DX009 (ip), vehicle: saline with Tween-80).

On to `O=C1C=CC(=O)N1c1ccc(F)cc1`, for which, for the setting “dose: 25.0 mg/kg/injection, schedule: Q04DX003 (ip), vehicle: saline with Tween-80”, the T/C is 108 % of control.

Turning to `CCc1ccccc1NC(=O)Oc1ccc(SC)cc1`, the T/C is 102 % of control (dose: 100.0 mg/kg/injection, schedule: Q01DX001 (ip), vehicle: saline with Tween-80); 97 % of control and 99 % of control under setting [2]; 93 % of control and 94 % of control (dose: 100.0 mg/kg/injection, schedule: Q04DX002 (ip), vehicle: saline with Tween-80); 98 % of control (dose: 200.0 mg/kg/injection, schedule: Q01DX001 (ip), vehicle: saline with Tween-80); 97 % of control and 89 % of control under setting [3]; 96 % of control and 97 % of control (dose: 200.0 mg/kg/injection, schedule: Q04DX002 (ip), vehicle: saline with Tween-80). In addition, the T/C by setting is: (dose: 400.0 mg/kg/injection, schedule: Q01DX001 (ip), vehicle: saline with Tween-80) 93 % of control; (dose: 400.0 mg/kg/injection, schedule: Q04DX002 (ip), vehicle: saline with Tween-80) 96 % of control and 107 % of control; (dose: 400.0 mg/kg/injection, schedule: Q04DX003 (ip), vehicle: saline with Tween-80) 90 % of control.

Regarding `Cc1ccc(C)c(Cl)c1Cl`, the T/C was 98 % of control (dose: 75.0 mg/kg/injection, schedule: Q01DX009 (ip), vehicle: saline sonified); 103 % of control (dose: 100.0 mg/kg/injection, schedule: Q04DX003 (ip), vehicle: saline); 103 % of control (dose: 150.0 mg/kg/injection, schedule: Q01DX009 (ip), vehicle: saline sonified); 108 % of control (dose: 200.0 mg/kg/injection, schedule: Q04DX003 (ip), vehicle: saline); 99 % of control (dose: 300.0 mg/kg/injection, schedule: Q01DX009 (ip), vehicle: saline sonified); 103 % of control (dose: 400.0 mg/kg/injection, schedule: Q04DX003 (ip), vehicle: saline).

Consider `O=P(N1CC1)(N1CC1)N(CCCCN(Cc1ccccc1)P(=O)(N1CC1)N1CC1)Cc1ccccc1`, for which the T/C is 104 % of control (dose: 10.0 mg/kg/injection, schedule: Q01DX001 (ip), vehicle: carboxymethylcellulose (CMC)); 101 % of control (dose: 20.0 mg/kg/injection, schedule: Q01DX001 (ip), vehicle: carboxymethylcellulose (CMC)); 104 % of control (dose: 40.0 mg/kg/injection, schedule: Q01DX001 (ip), vehicle: carboxymethylcellulose (CMC)); 106 % of control (dose: 80.0 mg/kg/injection, schedule: Q01DX001 (ip), vehicle: carboxymethylcellulose (CMC)); 92 % of control under setting [4].

As for `Cc1ccc(NC(=O)N(CCCl)N=O)c(C)c1`, the T/C (dose: 10.0 mg/kg/injection, schedule: Q01DX009 (ip), vehicle: other) was 180 % of control; the T/C (dose: 16.0 mg/kg/injection, schedule: Q01DX009 (ip), vehicle: other) was 241 % of control; the T/C (dose: 24.0 mg/kg/injection, schedule: Q01DX009 (ip), vehicle: other) is 158 % of control; the T/C (dose: 25.0 mg/kg/injection, schedule: Q01DX001 (ip), vehicle: other) was 153 % of control; the T/C (dose: 50.0 mg/kg/injection, schedule: Q01DX001 (ip), vehicle: other) is 158 % of control; the T/C under setting [1] was 101 % of control.

As to `O=C(/C=C/c1ccc(Cl)c(Cl)c1)c1ccccc1[N+](=O)[O-]`, the T/C runs as follows: (dose: 100.0 mg/kg/injection, schedule: Q01DX009 (ip), vehicle: Klucel (hydroxypropylcellulose) (HPC)) 103 % of control; (dose: 200.0 mg/kg/injection, schedule: Q01DX009 (ip), vehicle: Klucel (hydroxypropylcellulose) (HPC)) 97 % of control; (dose: 400.0 mg/kg/injection, schedule: Q01DX009 (ip), vehicle: Klucel (hydroxypropylcellulose) (HPC)) 92 % of control.

On to `CC(=O)NC1C(Oc2ccccc2)OC(C(O)CO)C1O` (configuration not stated), for which the T/C was 108 % of control (dose: 100.0 mg/kg/injection, schedule: Q01DX001 (sc), vehicle: saline); 103 % of control (dose: 200.0 mg/kg/injection, schedule: Q01DX001 (sc), vehicle: saline); 108 % of control (dose: 400.0 mg/kg/injection, schedule: Q01DX001 (sc), vehicle: saline).

Regarding `CNC(=N)c1ccc(NC(=N)c2ccc(NC(=O)Nc3ccc(NC(=O)Nc4ccc(C(=N)Nc5ccc(C(=N)NC)cc5)cc4)cc3)cc2)cc1`, the T/C reads like this: (dose: 0.5 mg/kg/injection, schedule: Q01DX015 (ip), vehicle: water) 103 % of control; (dose: 1.0 mg/kg/injection, schedule: Q01DX015 (ip), vehicle: water) 116 % of control; (dose: 2.0 mg/kg/injection, schedule: Q01DX015 (ip), vehicle: water) 152 % of control; (dose: 5.0 mg/kg/injection, schedule: Q01DX Z (ip), vehicle: water) 156 % of control; (dose: 7.5 mg/kg/injection, schedule: Q01DX Z (ip), vehicle: water) 180 % of control; (dose: 10.0 mg/kg/injection, schedule: Q01DX Z (ip), vehicle: water) 150 % of control. The T/C was 161 % of control (dose: 15.0 mg/kg/injection, schedule: Q01DX Z (ip), vehicle: water); 104 % of control (dose: 20.0 mg/kg/injection, schedule: Q01DX Z (ip), vehicle: water); 87 % of control (dose: 30.0 mg/kg/injection, schedule: Q01DX Z (ip), vehicle: water); 101 % of control (dose: 35.7 mg/kg/injection, schedule: Q01DX Z (ip), vehicle: water).

`CCOS(=O)(=O)c1ccc([N+](=O)[O-])cc1[N+](=O)[O-]`: the T/C was 97 % of control (dose: 100.0 mg/kg/injection, schedule: Q01DX009 (ip), vehicle: saline) and 92 % of control (dose: 200.0 mg/kg/injection, schedule: Q01DX009 (ip), vehicle: saline).

Take `Cc1ccccc1-c1nc2c(N)nc(N)nc2nc1N`: the T/C (dose: 25.25 mg/kg/injection, schedule: Q01DX Z (ip), vehicle: carboxymethylcellulose (CMC)) was 104 % of control; the T/C (dose: 50.0 mg/kg/injection, schedule: Q01DX001 (ip), vehicle: carboxymethylcellulose (CMC)) was 101 % of control; the T/C (dose: 50.5 mg/kg/injection, schedule: Q01DX Z (ip), vehicle: carboxymethylcellulose (CMC)) was 106 % of control; the T/C (dose: 79.0 mg/kg/injection, schedule: Q04DX002 (ip), vehicle: Klucel (hydroxypropylcellulose) (HPC)) is 111 % of control; the T/C under setting [4] is 96 % of control; the T/C (dose: 118.0 mg/kg/injection, schedule: Q04DX002 (ip), vehicle: Klucel (hydroxypropylcellulose) (HPC)) was 97 % of control. Further, the T/C (dose: 180.0 mg/kg/injection, schedule: Q04DX002 (ip), vehicle: Klucel (hydroxypropylcellulose) (HPC)) is 100 % of control; the T/C (dose: 200.0 mg/kg/injection, schedule: Q01DX001 (ip), vehicle: carboxymethylcellulose (CMC)) was 104 % of control; the T/C (dose: 270.0 mg/kg/injection, schedule: Q04DX002 (ip), vehicle: Klucel (hydroxypropylcellulose) (HPC)) was 111 % of control; the T/C (dose: 400.0 mg/kg/injection, schedule: Q01DX001 (ip), vehicle: carboxymethylcellulose (CMC)) is 98 % of control; the T/C (dose: 500.0 mg/kg/injection, schedule: Q01DX Z (ip), vehicle: methylcellulose (MC)) was 120 % of control; the T/C (dose: 750.0 mg/kg/injection, schedule: Q01DX Z (ip), vehicle: methylcellulose (MC)) was 114 % of control. In addition, the T/C (dose: 1000.0 mg/kg/injection, schedule: Q01DX Z (ip), vehicle: methylcellulose (MC)) was 101 % of control.
